# Data published in PMC10133194 (Chemistry (Weinheim an der Bergstrasse, Germany), 2023).
# Read-outs that look alike come from different tables or passages of the source.
# Columns and labels:
# [1] = target: T1, EPHA2 kinase domain (D596-G900) (Homo sapiens, UniProt P29317); experiment: Microscale thermophoresis; type: binding; conditions: read-out: KD MST, 25 °C, 5% DMSO, duplicates
# T1 sequence (P29317 596-900): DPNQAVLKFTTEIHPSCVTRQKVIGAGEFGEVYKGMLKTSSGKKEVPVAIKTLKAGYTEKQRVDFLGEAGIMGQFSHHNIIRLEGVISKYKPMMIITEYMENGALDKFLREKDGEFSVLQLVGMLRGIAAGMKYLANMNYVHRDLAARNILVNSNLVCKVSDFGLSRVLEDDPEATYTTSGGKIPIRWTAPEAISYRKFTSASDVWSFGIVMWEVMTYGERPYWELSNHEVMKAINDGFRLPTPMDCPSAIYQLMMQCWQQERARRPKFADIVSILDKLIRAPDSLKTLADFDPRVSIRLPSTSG
# [2] = tested on: human colon carcinoma cells; conditions: panel of cell lines; cited from earlier work
# [3] = target: T1, EPHA2 kinase domain (D596-G900); conditions: read-out: KD MST, reported previously ref 18; cited from earlier work
# human CRC = conditions: cited from earlier work
Kd [1] [nM],Structure (SMILES),effect on proliferation of human colon carcinoma cells [2],Kd [3] [nM],effect on growth of human CRC in mice (human CRC)
10,Cc1ccc(NC(=O)c2cccc(C(F)(F)F)c2)cc1Nc1nc(-c2cccnc2)nc2c1cnn2C [Compound 7],–,–,–
2,COc1cccc(NC(=O)c2ccc(C)c(Nc3nc(-c4cccnc4)nc4c3cnn4C)c2)c1 [Compound 14],–,–,–
–,"Cc1ccc(C(=O)Nc2cccc(C(F)(F)F)c2)cc1Nc1nc(-c2cccnc2)nc2c1cnn2C [NVP, NVP-BHG712]",reduce the proliferation,–,–
–,Cc1ccc(C(=O)Nc2cccc(C(F)(F)F)c2)cc1Nc1nc(-c2cccnc2)nc2nn(C)cc12 [NVPiso],reduce the proliferation,73,inhibited the growth of human CRC in mice
